Structures are written as SMILES.

Test [1] addresses Tyrosine-protein kinase ABL1 (Homo sapiens, UniProt P00519). The test can be described thus: Inhibition of full-length human His-tagged ABL1 expressed in baculovirus expression system by Z'-LYTE assay.
Test [2] concerns the target RAC-beta serine/threonine-protein kinase (Homo sapiens, UniProt P31751). The test can be described thus: Inhibition of full-length recombinant human His-tagged AKT2 expressed in baculovirus expression system by Z'-LYTE assay.
In test [3] the target is Cyclin-dependent kinase 2 (Homo sapiens, UniProt P24941). The experiment in a line: Inhibition of full-length recombinant human His-tagged CDK2 expressed in baculovirus expression system by Z'-LYTE assay.
In test [4] the target is CDK9/cyclin T1 (Homo sapiens, UniProt P50750). The test can be described thus: Inhibition of full-length recombinant human His-tagged CDK9/cyclin T1 expressed in baculovirus expression system by Adapta assay.
The target of test [5] is Casein kinase I isoform alpha (Homo sapiens, UniProt P48729). The test can be described thus: Inhibition of recombinant human GST-tagged cytoplasmic CSNK1A1 expressed in baculovirus expression system by Z'-LYTE assay.
Test [6] has as its target T1, Ephrin type-A receptor 3 (Homo sapiens, UniProt P29320).
T1 sequence (P29320 whole entry): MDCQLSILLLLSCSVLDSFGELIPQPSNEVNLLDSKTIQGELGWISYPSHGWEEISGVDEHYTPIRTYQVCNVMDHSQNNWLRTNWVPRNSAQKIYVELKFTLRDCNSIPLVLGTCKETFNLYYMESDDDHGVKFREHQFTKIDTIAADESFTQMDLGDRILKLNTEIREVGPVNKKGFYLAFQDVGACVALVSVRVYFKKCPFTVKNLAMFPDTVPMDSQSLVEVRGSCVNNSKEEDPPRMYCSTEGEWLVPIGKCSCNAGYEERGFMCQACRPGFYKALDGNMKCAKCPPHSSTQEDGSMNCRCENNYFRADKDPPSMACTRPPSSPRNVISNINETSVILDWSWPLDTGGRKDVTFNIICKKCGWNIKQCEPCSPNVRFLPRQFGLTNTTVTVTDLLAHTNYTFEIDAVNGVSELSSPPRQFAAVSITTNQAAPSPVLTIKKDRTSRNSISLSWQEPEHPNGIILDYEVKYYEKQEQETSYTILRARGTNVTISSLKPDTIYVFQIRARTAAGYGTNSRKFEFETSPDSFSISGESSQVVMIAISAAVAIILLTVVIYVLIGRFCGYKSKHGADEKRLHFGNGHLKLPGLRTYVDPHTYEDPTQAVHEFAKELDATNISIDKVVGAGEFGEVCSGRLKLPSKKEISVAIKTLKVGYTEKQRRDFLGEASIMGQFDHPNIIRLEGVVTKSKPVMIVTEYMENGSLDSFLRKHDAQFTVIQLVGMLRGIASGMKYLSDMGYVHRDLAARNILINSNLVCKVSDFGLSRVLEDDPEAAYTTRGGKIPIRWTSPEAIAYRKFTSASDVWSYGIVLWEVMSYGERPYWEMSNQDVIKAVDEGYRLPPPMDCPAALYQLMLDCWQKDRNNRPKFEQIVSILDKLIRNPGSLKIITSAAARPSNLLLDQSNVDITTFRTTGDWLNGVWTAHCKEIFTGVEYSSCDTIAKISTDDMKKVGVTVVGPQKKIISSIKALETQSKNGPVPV
The test can be described thus: Inhibition of recombinant human His-tagged cytoplasmic EPHA3 expressed in baculovirus expression system by LanthaScreen assay.

Test [7] has as its target Insulin receptor (Homo sapiens, UniProt P06213). The experiment in a line: Inhibition of recombinant human GST-tagged cytoplasmic INSR (1011 to 1382 residues) expressed in baculovirus expression system by Z'-LYTE assay.
Test [8] has as its target Tyrosine-protein kinase JAK2 (Homo sapiens, UniProt O60674). The test can be described thus: Inhibition of recombinant human GST-tagged cytoplasmic JAK2 (809 to 1153 residues) expressed in baculovirus expression system by Z'-LYTE assay.
The target in test [9] is T2, Dual specificity mitogen-activated protein kinase kinase 6 (Homo sapiens, UniProt P52564).
T2 sequence (P52564 whole entry): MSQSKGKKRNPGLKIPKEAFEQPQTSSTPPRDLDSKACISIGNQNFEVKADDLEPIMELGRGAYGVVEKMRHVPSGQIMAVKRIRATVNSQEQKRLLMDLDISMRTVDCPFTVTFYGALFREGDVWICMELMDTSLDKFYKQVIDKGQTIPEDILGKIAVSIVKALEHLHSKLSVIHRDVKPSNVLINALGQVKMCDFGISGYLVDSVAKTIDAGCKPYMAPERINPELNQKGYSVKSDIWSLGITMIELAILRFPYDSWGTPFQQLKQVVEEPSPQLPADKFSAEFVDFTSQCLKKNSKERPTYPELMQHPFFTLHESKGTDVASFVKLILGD
The experiment in a line: Inhibition of full-length recombinant human His-tagged MAP2K6 expressed in baculovirus expression system by Z'-LYTE assay.

Test [10] addresses High affinity nerve growth factor receptor (Homo sapiens, UniProt P04629). The experiment in a line: Inhibition of recombinant human His-tagged cytoplasmic NTRK1 expressed in baculovirus expression system by Z'-LYTE assay.
Test [11] addresses PI3-kinase p110-delta/p85-alpha (Homo sapiens, UniProt O00329). The experiment in a line: Inhibition of full-length recombinant human His-tagged PIK3P110D/P85A expressed in baculovirus expression system by Adapta assay.
Test [12] concerns the target Serine/threonine-protein kinase pim-1 (Homo sapiens, UniProt P11309). The test can be described thus: Inhibition of full-length recombinant human His-tagged PIM1 expressed in baculovirus expression system by Z'-LYTE assay.
Test [13] addresses Serine/threonine-protein kinase PLK1 (Homo sapiens, UniProt P53350). The experiment in a line: Inhibition of full-length recombinant human His-tagged PLK1 expressed in baculovirus expression system by Z'-LYTE assay.
Test [14] addresses T3, Tyrosine-protein kinase ZAP-70 (Homo sapiens, UniProt P43403).
T3 sequence (P43403 whole entry): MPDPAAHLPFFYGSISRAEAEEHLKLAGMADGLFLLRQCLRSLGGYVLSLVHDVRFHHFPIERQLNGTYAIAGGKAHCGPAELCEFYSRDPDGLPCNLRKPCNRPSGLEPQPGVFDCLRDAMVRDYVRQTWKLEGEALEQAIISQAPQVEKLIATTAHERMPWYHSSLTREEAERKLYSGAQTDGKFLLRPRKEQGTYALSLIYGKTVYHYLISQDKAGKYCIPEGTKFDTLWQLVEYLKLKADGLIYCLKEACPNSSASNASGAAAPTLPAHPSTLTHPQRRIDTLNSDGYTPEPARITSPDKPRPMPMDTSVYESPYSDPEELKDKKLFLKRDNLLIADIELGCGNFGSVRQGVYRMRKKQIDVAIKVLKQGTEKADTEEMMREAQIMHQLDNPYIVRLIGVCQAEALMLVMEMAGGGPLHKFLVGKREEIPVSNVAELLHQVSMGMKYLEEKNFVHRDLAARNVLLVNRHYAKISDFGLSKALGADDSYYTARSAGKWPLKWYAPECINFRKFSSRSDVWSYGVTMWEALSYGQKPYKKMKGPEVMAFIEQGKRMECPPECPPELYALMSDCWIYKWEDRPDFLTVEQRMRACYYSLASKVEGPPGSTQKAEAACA
The experiment in a line: Inhibition of full-length recombinant human His-tagged cytoplasmic ZAP70 expressed in baculovirus expression system by Z'-LYTE assay.

Sequence of CDK9/cyclin T1 (O60563 whole entry, canonical isoform): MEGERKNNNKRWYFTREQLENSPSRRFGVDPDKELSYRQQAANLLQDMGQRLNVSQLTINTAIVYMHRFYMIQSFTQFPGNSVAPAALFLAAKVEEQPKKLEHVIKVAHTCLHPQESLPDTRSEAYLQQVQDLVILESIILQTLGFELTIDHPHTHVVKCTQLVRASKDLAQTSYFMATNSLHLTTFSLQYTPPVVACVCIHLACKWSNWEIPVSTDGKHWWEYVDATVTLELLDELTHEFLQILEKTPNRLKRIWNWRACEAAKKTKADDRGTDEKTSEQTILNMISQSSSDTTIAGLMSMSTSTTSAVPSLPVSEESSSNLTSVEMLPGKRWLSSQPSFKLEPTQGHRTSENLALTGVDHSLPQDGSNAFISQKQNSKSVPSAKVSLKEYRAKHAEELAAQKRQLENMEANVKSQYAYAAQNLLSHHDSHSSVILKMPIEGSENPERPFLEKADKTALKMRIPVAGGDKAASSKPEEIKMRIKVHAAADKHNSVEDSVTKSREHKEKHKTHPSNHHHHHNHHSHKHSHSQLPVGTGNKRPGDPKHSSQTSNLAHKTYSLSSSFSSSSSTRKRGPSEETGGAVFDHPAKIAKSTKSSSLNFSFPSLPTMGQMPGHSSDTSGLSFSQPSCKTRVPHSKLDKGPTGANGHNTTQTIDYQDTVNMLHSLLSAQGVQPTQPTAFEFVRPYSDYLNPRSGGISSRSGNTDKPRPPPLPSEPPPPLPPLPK
Sequence of CDK9/cyclin T1 (P50750 whole entry, canonical isoform): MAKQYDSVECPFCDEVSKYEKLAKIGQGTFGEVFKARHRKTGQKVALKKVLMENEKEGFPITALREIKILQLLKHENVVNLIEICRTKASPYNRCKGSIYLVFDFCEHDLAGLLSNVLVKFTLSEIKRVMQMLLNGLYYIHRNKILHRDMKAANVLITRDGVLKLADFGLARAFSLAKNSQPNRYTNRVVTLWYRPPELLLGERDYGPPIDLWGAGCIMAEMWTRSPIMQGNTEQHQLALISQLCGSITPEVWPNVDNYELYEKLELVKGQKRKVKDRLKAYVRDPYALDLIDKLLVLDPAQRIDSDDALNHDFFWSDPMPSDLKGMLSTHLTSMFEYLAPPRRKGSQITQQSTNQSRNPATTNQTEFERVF
Sequence of Insulin receptor (P06213 28-758 limits assumed): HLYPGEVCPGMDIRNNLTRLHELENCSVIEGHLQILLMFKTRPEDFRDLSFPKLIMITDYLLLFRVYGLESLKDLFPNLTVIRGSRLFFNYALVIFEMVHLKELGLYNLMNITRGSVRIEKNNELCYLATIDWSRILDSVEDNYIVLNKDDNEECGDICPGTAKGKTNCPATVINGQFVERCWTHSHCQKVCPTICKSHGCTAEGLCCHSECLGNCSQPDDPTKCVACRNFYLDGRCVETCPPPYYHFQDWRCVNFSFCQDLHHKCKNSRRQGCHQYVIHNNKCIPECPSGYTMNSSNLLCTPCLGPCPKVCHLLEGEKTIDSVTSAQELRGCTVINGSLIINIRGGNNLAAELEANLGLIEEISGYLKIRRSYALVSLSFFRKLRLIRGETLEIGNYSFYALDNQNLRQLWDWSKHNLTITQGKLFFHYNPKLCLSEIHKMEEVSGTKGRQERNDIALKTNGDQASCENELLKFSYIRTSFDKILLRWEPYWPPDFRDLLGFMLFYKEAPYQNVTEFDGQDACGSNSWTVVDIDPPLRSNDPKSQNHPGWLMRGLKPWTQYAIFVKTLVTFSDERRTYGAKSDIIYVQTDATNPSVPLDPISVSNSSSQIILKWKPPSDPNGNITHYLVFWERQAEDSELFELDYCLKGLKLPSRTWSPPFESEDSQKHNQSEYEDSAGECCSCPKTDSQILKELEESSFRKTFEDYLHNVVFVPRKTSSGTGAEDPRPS
Sequence of Insulin receptor (P06213 763-1382 limits assumed): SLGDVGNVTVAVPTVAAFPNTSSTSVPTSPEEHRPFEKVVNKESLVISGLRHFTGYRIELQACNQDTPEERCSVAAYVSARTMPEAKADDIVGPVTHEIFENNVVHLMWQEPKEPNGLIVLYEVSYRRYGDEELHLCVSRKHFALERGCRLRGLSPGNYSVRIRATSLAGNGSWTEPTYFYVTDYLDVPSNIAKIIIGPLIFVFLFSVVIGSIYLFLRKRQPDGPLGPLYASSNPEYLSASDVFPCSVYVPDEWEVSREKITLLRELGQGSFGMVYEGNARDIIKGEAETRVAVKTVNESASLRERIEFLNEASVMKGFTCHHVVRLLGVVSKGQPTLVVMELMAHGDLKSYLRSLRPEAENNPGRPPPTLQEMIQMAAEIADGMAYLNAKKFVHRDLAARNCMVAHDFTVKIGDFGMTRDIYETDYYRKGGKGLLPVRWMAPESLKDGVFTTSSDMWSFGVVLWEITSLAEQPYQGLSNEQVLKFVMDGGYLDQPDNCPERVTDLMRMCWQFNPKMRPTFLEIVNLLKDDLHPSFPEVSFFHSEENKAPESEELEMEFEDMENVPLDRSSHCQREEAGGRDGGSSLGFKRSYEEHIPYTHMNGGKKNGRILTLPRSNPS
Sequence of Tyrosine-protein kinase JAK2 (O60674 whole entry, the tested form may be a part): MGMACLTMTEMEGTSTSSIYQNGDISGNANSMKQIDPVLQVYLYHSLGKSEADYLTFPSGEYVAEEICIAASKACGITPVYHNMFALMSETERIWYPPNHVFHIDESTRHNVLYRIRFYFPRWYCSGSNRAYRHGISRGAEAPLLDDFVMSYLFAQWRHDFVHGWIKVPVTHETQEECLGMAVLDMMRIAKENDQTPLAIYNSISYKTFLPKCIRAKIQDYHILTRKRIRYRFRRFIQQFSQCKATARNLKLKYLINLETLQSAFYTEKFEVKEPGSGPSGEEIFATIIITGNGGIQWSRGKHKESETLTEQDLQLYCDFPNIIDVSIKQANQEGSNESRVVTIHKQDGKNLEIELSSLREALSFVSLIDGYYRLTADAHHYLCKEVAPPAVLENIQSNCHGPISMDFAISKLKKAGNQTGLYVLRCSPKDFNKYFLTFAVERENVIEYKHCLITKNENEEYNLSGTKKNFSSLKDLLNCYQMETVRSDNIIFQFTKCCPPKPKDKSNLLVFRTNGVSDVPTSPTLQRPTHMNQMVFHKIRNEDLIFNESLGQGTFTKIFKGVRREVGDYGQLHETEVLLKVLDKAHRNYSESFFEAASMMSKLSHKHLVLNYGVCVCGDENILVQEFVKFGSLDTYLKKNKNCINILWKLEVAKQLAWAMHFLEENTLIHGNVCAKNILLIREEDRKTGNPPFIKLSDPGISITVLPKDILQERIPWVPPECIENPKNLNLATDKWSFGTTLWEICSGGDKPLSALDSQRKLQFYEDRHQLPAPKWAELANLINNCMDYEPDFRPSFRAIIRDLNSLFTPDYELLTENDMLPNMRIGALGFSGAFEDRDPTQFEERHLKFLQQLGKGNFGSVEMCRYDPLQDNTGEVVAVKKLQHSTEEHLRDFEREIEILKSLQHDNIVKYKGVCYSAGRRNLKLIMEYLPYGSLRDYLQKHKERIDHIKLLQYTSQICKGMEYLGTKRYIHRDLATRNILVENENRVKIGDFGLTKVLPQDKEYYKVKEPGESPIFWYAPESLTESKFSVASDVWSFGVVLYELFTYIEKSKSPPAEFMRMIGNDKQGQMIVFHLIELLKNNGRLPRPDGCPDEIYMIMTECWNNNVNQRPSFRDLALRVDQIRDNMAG
Sequence of High affinity nerve growth factor receptor (P04629 whole entry): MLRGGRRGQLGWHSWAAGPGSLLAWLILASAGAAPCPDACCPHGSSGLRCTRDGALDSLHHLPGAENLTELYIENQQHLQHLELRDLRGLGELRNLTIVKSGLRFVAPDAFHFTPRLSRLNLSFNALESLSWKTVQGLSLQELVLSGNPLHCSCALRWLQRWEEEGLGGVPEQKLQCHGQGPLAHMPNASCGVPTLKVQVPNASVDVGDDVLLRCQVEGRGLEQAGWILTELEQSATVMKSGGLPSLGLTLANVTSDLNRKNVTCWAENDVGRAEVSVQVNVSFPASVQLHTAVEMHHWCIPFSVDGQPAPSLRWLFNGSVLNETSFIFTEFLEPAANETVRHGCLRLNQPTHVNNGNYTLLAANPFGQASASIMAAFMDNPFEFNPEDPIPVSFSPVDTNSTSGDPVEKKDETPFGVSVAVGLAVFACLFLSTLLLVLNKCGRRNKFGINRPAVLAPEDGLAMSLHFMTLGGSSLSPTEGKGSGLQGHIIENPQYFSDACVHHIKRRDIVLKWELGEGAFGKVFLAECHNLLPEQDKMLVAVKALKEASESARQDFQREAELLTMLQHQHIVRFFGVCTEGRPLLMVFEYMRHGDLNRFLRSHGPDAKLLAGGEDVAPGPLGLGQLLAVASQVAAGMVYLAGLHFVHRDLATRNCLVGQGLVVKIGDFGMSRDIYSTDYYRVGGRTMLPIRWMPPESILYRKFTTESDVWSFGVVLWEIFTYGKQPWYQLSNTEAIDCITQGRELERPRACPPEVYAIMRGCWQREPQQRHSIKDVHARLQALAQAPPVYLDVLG
Sequence of RAC-beta serine/threonine-protein kinase (P31751 whole entry): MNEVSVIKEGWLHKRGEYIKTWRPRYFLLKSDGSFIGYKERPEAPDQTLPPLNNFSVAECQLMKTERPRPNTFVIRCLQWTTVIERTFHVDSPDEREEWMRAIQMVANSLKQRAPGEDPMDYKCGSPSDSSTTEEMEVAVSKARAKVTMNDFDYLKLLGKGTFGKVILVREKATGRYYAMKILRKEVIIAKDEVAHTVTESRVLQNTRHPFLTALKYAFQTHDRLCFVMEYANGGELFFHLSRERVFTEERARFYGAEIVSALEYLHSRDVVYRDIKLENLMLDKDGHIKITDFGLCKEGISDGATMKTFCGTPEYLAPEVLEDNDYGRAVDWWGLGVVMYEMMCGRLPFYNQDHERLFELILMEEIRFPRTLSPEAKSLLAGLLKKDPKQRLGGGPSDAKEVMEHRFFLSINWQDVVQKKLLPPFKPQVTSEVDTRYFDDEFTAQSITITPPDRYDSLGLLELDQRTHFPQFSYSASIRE

As for `Cn1cc(-c2cnc3c(-c4csc(C(=O)NCC(F)(F)F)c4)cnn3c2)cn1`, the IC50 is under 10 nM in test [1]; over 100000 nM in test [2]; under 10 nM in test [3]; 35 nM in [4]; 630 nM in test [5]; 52 nM in test [6]. The IC50 in [7] was over 100000 nM; in test [8] it was 1200 nM; in test [9], 35000 nM; in test [10], 540 nM; in test [11] it was 1500 nM; in test [12], 9900 nM. Also, the IC50 in test [13] and in test [14] was over 100000 nM in each case.
Regarding `Cc1sc(C(=O)N[C@@H]2[C@H](N)CCCC2(F)F)cc1-c1cnn2cc(Cl)cnc12`, the 50% inhibitory concentration (IC50) was 9100 nM in test [1]; 2500 nM in test [2]; 51 nM in [3]; 240 nM in test [4]; 18000 nM in [5]; over 100000 nM in test [6]. The IC50 was over 100000 nM in [7]; 4400 nM in test [8]; 3300 nM in [9]; 2100 nM in test [10]; over 100000 nM in test [11]; 1600 nM in [12]. The IC50 in test [13] and in test [14] was over 100000 nM throughout.
On to `O=C(NCC(F)(F)F)c1cc(-c2cnn3cc(-c4ccc(OCCN5CCCCC5)cc4)cnc23)cs1`, for which the half-inhibitory concentration (IC50) is under 10 nM in [1]; 23000 nM in test [2]; 12 nM in [3]; 45 nM in test [4]; 230 nM in [5]; 180 nM in test [6]. In addition, the IC50 in [7] came out at 55000 nM; in test [8], 2400 nM; in test [9], 19000 nM; in test [10], 310 nM; in test [11], 55000 nM; in test [12] it was 590 nM. Besides, the values for the IC50 in test [13] and in test [14] were 55000 nM and over 100000 nM, respectively.
As to `Cn1cc(-c2cnc3c(-c4csc(C(=O)N[C@@H]5CCCC[C@@H]5N)c4)cnn3c2)cn1` (racemic), the IC50 stood at 1.3 nM in [1]; 430 nM in [2]; 2.2 nM in [3]; 12 nM in [4]; 2100 nM in test [5]; 22 nM in test [6]. In addition, the half-inhibitory concentration (IC50) in test [7] was over 10000 nM; in test [8] it was 64 nM; in [9] it was 290 nM; in test [10], 50 nM; in test [11], 3300 nM; in [12], 2800 nM. Also, the IC50 in [13] and in [14] was over 10000 nM throughout.

For orientation: IC50 means the concentration that gives 50% inhibition.

Source of the values: ChEMBL document CHEMBL4477252, “Optimization of microtubule affinity regulating kinase (MARK) inhibitors with improved physical properties” (Bioorg Med Chem Lett, 2016).
